Among the test systems are UACC-257 melanoma; SR leukemia; SW-620 colon; A549 NSCLC; A498 renal; BT-549 breast; KM12 colon; SF-268 CNS; HOP-62 NSCLC; HS 578T breast.
Holding throughout (assay): NCI anticancer screen, dose series, 48 h

The record followed here is PubChem BioAssay (NCI).

Values joined by “and” are separate entries in the source; they are usually repeats but may differ in a detail not shown here. Equal entries are not always repeated.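 Cells were grown in 96-well plates and exposed to each compound for 48 hours at five concentrations; endpoints were interpolated linearly between bracketing concentrations, or set to the highest concentration if not reached. Here, GI50 denotes the concentration required for 50% inhibition of growth. TGI is the concentration that stops growth completely.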 Where only a bound is given, the exact number is not on record here.

Regarding `Cc1ccc2c(c1)c1nc3cc(C)c(C)cc3nc1n2CCN(C)C`, the GI50 in the assay with UACC-257 melanoma was 2.2 µM; in the assay with SR leukemia, 1.06 µM; in the assay on SW-620 colon it was 1.13 µM; in the assay on A549 NSCLC, 1.79 µM; in the assay with A498 renal, 1.77 µM; in the assay on BT-549 breast it was 2.46 µM. Further, the GI50 is 2.67 µM in the assay on KM12 colon, 2.51 µM in the assay with SF-268 CNS, 1.78 µM with HOP-62 NSCLC and 2.74 µM in the assay on HS 578T breast. In addition, the TGI in the assay with UACC-257 melanoma was determined as 5.48 µM; in the assay on SR leukemia it was 14.2 µM; with SW-620 colon it was 5.46 µM; with A549 NSCLC, 4.72 µM; in the assay on A498 renal it was 3.34 µM; in the assay on BT-549 breast it was 9.05 µM. In addition, the TGI stood at 10.5 µM in the assay with KM12 colon, 7.65 µM in the assay on SF-268 CNS, 7.26 µM in the assay with HOP-62 NSCLC and 8.04 µM in the assay with HS 578T breast.

As for `Cc1ccc(NC(=O)Cc2ccc(/C=C/C(=O)c3ncc[nH]3)cc2)cc1`, the GI50 is above 25 µM in the assay on UACC-257 melanoma; 0.992 µM with SR leukemia; 5.22 µM with SW-620 colon; 9.14 µM in the assay on A549 NSCLC; 19.9 µM in the assay with A498 renal; 6.42 µM in the assay with BT-549 breast. Moreover, the GI50 in the assay on KM12 colon was 3.09 µM; in the assay on SF-268 CNS, 5.32 µM; in the assay on HOP-62 NSCLC, 5.24 µM; in the assay with HS 578T breast it was 13.6 µM. Further, the TGI with UACC-257 melanoma, with SR leukemia, in the assay on SW-620 colon, with A549 NSCLC, in the assay with A498 renal and with BT-549 breast was above 25 µM in each case. For the same compound, the TGI in the assay on KM12 colon is 12.7 µM; with SF-268 CNS, above 25 µM; in the assay on HOP-62 NSCLC, 21.6 µM; in the assay with HS 578T breast it was above 25 µM.

Take `S=C(N/N=C(/c1ccccc1)c1ccccn1)N1CCCCC1`: the GI50 in the assay on UACC-257 melanoma was below 0.001 µM; with SR leukemia, below 0.001 µM; in the assay on SW-620 colon, below 0.001 µM; with A549 NSCLC it was 0.00361 µM; with A498 renal, 0.0815 µM; in the assay with KM12 colon, 0.00123 µM. The GI50 with SF-268 CNS is 0.323 µM; in the assay with HOP-62 NSCLC, below 0.001 µM; in the assay with HS 578T breast it was 1.3 µM. Also, the TGI is 1.04 µM and 1.16 µM in the assay with UACC-257 melanoma; below 0.001 µM in the assay on SR leukemia; 1.23 µM and 2.96 µM in the assay with SW-620 colon; 1.71 µM and 3.88 µM in the assay with A549 NSCLC; 1.43 µM and 2.37 µM in the assay with A498 renal; 2.53 µM in the assay on BT-549 breast. The TGI was 1.79 µM and 2.11 µM in the assay on KM12 colon; 2.5 µM and 5.35 µM in the assay on SF-268 CNS; 2.33 µM and 2.78 µM in the assay with HOP-62 NSCLC; 6.74 µM and 5.88 µM with HS 578T breast.

As for `Cc1cc(Cl)cc2c(N=Nc3ccccc3[N+](=O)[O-])c(O)[nH]c12`, the TGI in the assay with UACC-257 melanoma is above 100 µM; with SR leukemia, 82.3 µM; with SW-620 colon, above 100 µM; in the assay with A549 NSCLC, above 100 µM; in the assay with A498 renal, above 100 µM; with BT-549 breast it was above 100 µM. For the same compound, the TGI with KM12 colon, with SF-268 CNS, in the assay on HOP-62 NSCLC and in the assay with HS 578T breast was above 100 µM each time.

As for `N=C(N)c1ccc(OCCOCCOc2ccc(C(=N)N)cc2)cc1`, the GI50 in the assay with UACC-257 melanoma was 38.3 µM; in the assay with SR leukemia, 31.7 µM; with SW-620 colon, above 100 µM; with A549 NSCLC, 40.1 µM; with A498 renal, 63.7 µM; in the assay with BT-549 breast, 53.5 µM. The GI50 was 41.6 µM with KM12 colon, 52 µM with SF-268 CNS, above 100 µM in the assay with HOP-62 NSCLC and 67.3 µM in the assay with HS 578T breast. Moreover, the TGI with UACC-257 melanoma, with SR leukemia, with SW-620 colon, in the assay with A549 NSCLC, with A498 renal and with BT-549 breast was above 100 µM throughout. For the same compound, the TGI in the assay on KM12 colon, with SF-268 CNS, in the assay with HOP-62 NSCLC and in the assay with HS 578T breast was above 100 µM throughout.

Turning to `Cc1cc2cc3cc(C)c(N(C)C)cc3[n+](C)c2cc1N(C)C`, the GI50 was 4.73 µM in the assay on UACC-257 melanoma; 3.16 µM with SR leukemia; 2.92 µM with SW-620 colon; 3.1 µM with A549 NSCLC; 3.18 µM in the assay with A498 renal; 2.55 µM in the assay on BT-549 breast. Also, the GI50 was 2.72 µM in the assay with KM12 colon, 4.1 µM with SF-268 CNS, 6.03 µM with HOP-62 NSCLC and 2.35 µM in the assay with HS 578T breast. Further, the TGI in the assay on UACC-257 melanoma was 37.7 µM; in the assay on SR leukemia it was above 100 µM; in the assay on SW-620 colon it was 18 µM; in the assay on A549 NSCLC, above 100 µM; in the assay on A498 renal, 25.5 µM; with BT-549 breast, 9.62 µM. The TGI in the assay on KM12 colon amounted to 11.3 µM; in the assay on SF-268 CNS, 20.5 µM; in the assay with HOP-62 NSCLC, 24.3 µM; in the assay with HS 578T breast it was 14.9 µM.

`CS(=O)(=O)OCC1OC(n2ccc(NC(=O)c3ccccc3)nc2=O)CC1OS(C)(=O)=O` (stereo not drawn): the TGI in the assay on UACC-257 melanoma, with SR leukemia, in the assay on SW-620 colon, in the assay with A549 NSCLC, in the assay on A498 renal and in the assay on BT-549 breast was above 100 µM in each case. Besides, the TGI with KM12 colon, in the assay with SF-268 CNS, with HOP-62 NSCLC and in the assay with HS 578T breast was above 100 µM in each case.

Regarding `CC/C(=C(/c1ccc(OCCN(C)C)cc1)c1ccc(OC(=O)CCC(=O)c2c(C)[nH]c(/C=C3\N=C(c4ccc[nH]4)C=C3OC)c2C)cc1)c1ccccc1`, the GI50 was 3.38 µM in the assay on UACC-257 melanoma; 0.694 µM in the assay on SR leukemia; 0.76 µM with SW-620 colon; 2.63 µM with A549 NSCLC; 2.54 µM with A498 renal; 3.5 µM in the assay with BT-549 breast. In addition, the GI50 in the assay on KM12 colon was 1.21 µM; in the assay on SF-268 CNS it was 2.62 µM; in the assay with HOP-62 NSCLC, 1.49 µM; with HS 578T breast it was 1.15 µM. Besides, the TGI in the assay with UACC-257 melanoma was found to be 14.7 µM; in the assay on SR leukemia, 5.38 µM; in the assay with SW-620 colon, 2.57 µM; in the assay with A549 NSCLC, 10.6 µM; in the assay with A498 renal it was 16.8 µM; in the assay on BT-549 breast, 20.4 µM. Also, the TGI in the assay with KM12 colon was determined as 10 µM; in the assay on SF-268 CNS it was 17.8 µM; in the assay with HOP-62 NSCLC, 4.94 µM; in the assay with HS 578T breast, 4.72 µM.

Consider `O=C1C2C(C(=O)[N]1[Hg][c]1cccs1)C1(Cl)C(Cl)=C(Cl)C2(Cl)C1(Cl)Cl` (stereo not drawn), for which the GI50 with UACC-257 melanoma was 1.28 µM; in the assay with SR leukemia, 0.146 µM; in the assay on SW-620 colon, 1.02 µM; in the assay with A549 NSCLC, 5.94 µM; in the assay on A498 renal, 2.29 µM; in the assay on BT-549 breast it was 0.984 µM. The GI50 in the assay on KM12 colon was 11.7 µM; with SF-268 CNS, 1.41 µM; with HOP-62 NSCLC it was 2.52 µM; with HS 578T breast, 2.41 µM. The TGI amounted to 2.83 µM with UACC-257 melanoma; 3.08 µM in the assay on SW-620 colon; 16.7 µM with A549 NSCLC; 6.05 µM in the assay on A498 renal; 2.24 µM in the assay on BT-549 breast; 24.3 µM with KM12 colon. Further, the TGI with SF-268 CNS stood at 2.84 µM; in the assay on HOP-62 NSCLC, 6.84 µM; in the assay on HS 578T breast, 11.5 µM.

Turning to `O=c1c2c3c(sc2n2c(-c4cc(-c5ccccc5)no4)nnc2n1Cc1ccccc1)CCCC3`, the GI50 with UACC-257 melanoma is 23.9 µM; with SR leukemia, 4.94 µM; in the assay on SW-620 colon, 31.4 µM; in the assay on A549 NSCLC, 10.5 µM; in the assay with A498 renal, 36.5 µM; with BT-549 breast it was 13.7 µM. Besides, the GI50 in the assay with KM12 colon was 15.8 µM; with SF-268 CNS, 15.6 µM; in the assay with HOP-62 NSCLC, 14.8 µM; in the assay on HS 578T breast, 18.7 µM. Besides, the TGI is above 74 µM with UACC-257 melanoma; above 42 µM in the assay with SR leukemia; above 100 µM in the assay on SW-620 colon; above 86.5 µM in the assay with A549 NSCLC; above 100 µM in the assay with A498 renal; 63.2 µM with BT-549 breast. Further, the TGI in the assay on KM12 colon is 55.2 µM; with SF-268 CNS, 68.3 µM; in the assay on HOP-62 NSCLC it was 57 µM; in the assay with HS 578T breast, above 94.7 µM.

Regarding `O=c1ccc(N=Nc2ccc([N+](=O)[O-])cc2)ccc1O`, the GI50 in the assay with UACC-257 melanoma was 10.6 µM; in the assay with SR leukemia, 4.13 µM; in the assay on SW-620 colon it was 3.45 µM; with A549 NSCLC, 6.8 µM; in the assay on A498 renal, above 100 µM; in the assay with BT-549 breast it was 8.74 µM. In addition, the GI50 is 5.54 µM in the assay with KM12 colon, 4.18 µM in the assay on SF-268 CNS, 18.1 µM in the assay with HOP-62 NSCLC and 4.27 µM in the assay on HS 578T breast. Also, the TGI was 81.6 µM in the assay on UACC-257 melanoma; above 100 µM with SR leukemia; above 100 µM in the assay with SW-620 colon; above 100 µM in the assay with A549 NSCLC; above 100 µM with A498 renal; above 100 µM with BT-549 breast. The TGI in the assay with KM12 colon, with SF-268 CNS, in the assay on HOP-62 NSCLC and in the assay on HS 578T breast was above 100 µM in each case.

Take `CCCCOc1ccc(NC(=O)n2nc(N)c3ccccc32)cc1`: the GI50 was 24.8 µM with UACC-257 melanoma; 16 µM in the assay on SR leukemia; 19 µM in the assay on SW-620 colon; 21.6 µM in the assay with A549 NSCLC; 20.1 µM in the assay on A498 renal; 17.6 µM in the assay on BT-549 breast. Further, the GI50 is 13.2 µM with KM12 colon, 20.3 µM with SF-268 CNS, 24.4 µM in the assay on HOP-62 NSCLC and 20.7 µM with HS 578T breast. Moreover, the TGI in the assay on UACC-257 melanoma was 73.5 µM; in the assay with SR leukemia, 39.5 µM; in the assay on SW-620 colon, 37.2 µM; in the assay with A549 NSCLC it was above 87.9 µM; in the assay with A498 renal, 49.4 µM; in the assay on BT-549 breast it was 37 µM. For the same compound, the TGI with KM12 colon was 54.2 µM; in the assay with SF-268 CNS, above 100 µM; in the assay with HOP-62 NSCLC, 60.6 µM; in the assay on HS 578T breast, 53.4 µM.
